Measurements published in patent publication US20070123586A1, “Nitroso derivatives of diphenylamine” (priority 2003, published 2007).

Key:
[1] = Spontaneous nitric oxide release: nitrites+nitrates titrated by Griess colorimetry with nitrate reductase; settings: test product final concentration 150 μM, incubated four hours at 37° C., pH 7.5 PBS buffer, Griess reagent, OD 540 nm
Procedure: A solution of a compound of the invention of the formula I spontaneously releases nitric oxide. The nitrite ions resulting therefrom are titrated by colorimetry by means of a specific reagent (Griess). To take account of any release of nitrate ions in addition to the nitrite ions, bacterial nitrate reductase is added to the reaction medium, which makes it possible to reduce the nitrate ions formed.
The reactions and measurements are performed in transparent 96-well plates. The test products are dissolved extemporaneously at a concentration of 3 mM in dimethyl sulfoxide. 95 μl of a reagent comprising nitrate reductase (0.18 U/ml in 0.100 mM pH 7.5, PBS buffer, β-NADPH 210 μM, FAD 5 μM) and 5 μl of the solution of the test product (final concentration of 150 μM) are then introduced into each well. After stirring, the mixture is incubated for four hours at 37° C. The reaction is then quenched by addition of 100 μl of the Griess reagent (Sigma G4410). This reagent is left to act for five minutes at room temperature, and the optical density is then read at 540 nm. This value is proportional to the concentration of nitrites+nitrates in the medium. A calibration range is made for each plate using NaNO2.
The results are expressed in μmol/l (μM) of nitrites+nitrates released in Table I for some of the compounds of the formula I illustrated below.

Human LDLs = assay: Antioxidant effect: cupric ion-induced oxidation of human LDL (fluorescence); type: biochemical; settings: human LDL 120 μg/ml, CuCl2, 37° C., fluorescence difference 2 h vs 24 h, from three concentrations
Procedure: Human LDLs placed in aqueous solution in the presence of cupric ions, become spontaneously oxidized on their protein component, apolipoprotein-B. This oxidation makes the particle fluorescent, which is exploited to measure a pharmacological effect.
The reactions and measurements are performed in black 96-well plates. 10 μl of a solution of the test product dissolved in dimethyl sulfoxide are first mixed with 170 μl of a solution of human LDL at a concentration of 120 μg/ml and 20 μl of 100 μM CuCl2. After stirring, the mixture is incubated for 2 hours at 37° C., and a first fluorescence reading is taken (excitation at 360 nm, reading at 460 nm). The mixture is then incubated for a further 22 hours, to take a second reading under the same conditions. The difference is proportionately smaller the greater the antioxidant power of the test product. Probucol is used as reference product at a concentration of 10 μM.
The concentrations that inhibit 50% (IC50) of the oxidation are prepared from three concentrations of the test product. They are given in Table II below for some of the compounds of the formula I given as examples below.

fatty Zucker rats = assay: Hypotriglyceridaemiant activity in fatty Zucker rats; type: in vivo, rat; settings: 9-week-old male Zucker rats, 200 mg/kg/day p.o. for eight days, after fasting four hours
Procedure: The compounds were tested on fatty Zucker rats (Zucker L. M. et al., 1961, Fatty a new mutation in the rat, J. Hered., 52: 275-278). This animal is hyperphagic, obese and hyperinsulinaemic. It develops resistance to insulin, it is hyperlipidaemic, and has a large hypertriglyceridaemia.
9-week-old male Zucker rats were treated for eight days with the compounds of Example 2 and Example 5 at a dose of 200 mg/kg/day p.o. After fasting for four hours, a blood sample is taken to recover the plasma. […] The compound of Example 5 has a 21% […] effect (p<0.05) and reduces insulin by 45% (p<0.05).

## COc1ccc(N(N=O)c2ccc(C(=O)O)cc2)cc1 [Example 2, 4-[(4-Methoxyphenyl)(nitroso)amino]benzoic acid]
[1]
  Nitrites—Nitrates released: 87 µM
Human LDLs
  IC50: 17 µM
Fatty Zucker rats
  reduction in triglycerides (plasma): 58%
  reduction of insulinaemia (plasma insulin): 47%
other
  melting point: 169 to 171 °C

## O=NN(c1ccc(C(=O)O)cc1)c1ccc(C(F)(F)F)cc1 [Example 5, 4-{Nitroso[4-(trifluoromethyl)phenyl]amino}benzoic acid]
[1]
  Nitrites—Nitrates released: 108 µM
Fatty Zucker rats
  reduction in triglycerides (plasma): 21%
  reduction of insulinaemia (plasma insulin): 45%

## COc1ccc(N(N=O)c2ccc(C#N)cc2)cc1 [Example 6, 4-[(4-Methoxyphenyl)(nitroso)amino]benzonitrile]
[1]
  Nitrites—Nitrates released: 43 µM
other
  melting point: 88 to 90 °C

## COc1ccc(N(N=O)c2ccc(CO)cc2)cc1 [Example 8, {4-[(4-Methoxyphenyl)(nitroso)amino]phenyl}methanol]
[1]
  Nitrites—Nitrates released: 88 µM
Human LDLs
  IC50: 18.4 µM

## CCOC(=O)c1ccc(N(N=O)c2ccc(C#N)cc2)cc1 [Example 10]
[1]
  Nitrites—Nitrates released: 76 µM
Human LDLs
  IC50: 6.2 µM

## CCOC(=O)c1ccc(N(N=O)c2ccc(S(C)(=O)=O)cc2)cc1 [Example 12]
[1]
  Nitrites—Nitrates released: 38 µM

## O=NN(c1ccc(C(=O)O)cc1)c1ccc([N+](=O)[O-])cc1 [Example 13]
[1]
  Nitrites—Nitrates released: 86 µM
Human LDLs
  IC50: 4.6 µM

## N#Cc1ccc(N(N=O)c2ccc(C(=O)O)cc2)cc1 [Example 14]
[1]
  Nitrites—Nitrates released: 69 µM

## CS(=O)(=O)c1ccc(N(N=O)c2ccc(C(=O)O)cc2)cc1 [Example 15]
[1]
  Nitrites—Nitrates released: 88 µM

## COc1ccc(N(N=O)c2ccc(CC(=O)O)cc2)cc1 [Example 17]
[1]
  Nitrites—Nitrates released: 58 µM
Human LDLs
  IC50: 11.6 µM

## COc1ccc(N(N=O)c2ccc(C(C)=O)cc2)cc1 [Example 18]
[1]
  Nitrites—Nitrates released: 81 µM

## O=NN(c1ccc(F)cc1)c1ccc(C(=O)O)cc1 [Example 19]
[1]
  Nitrites—Nitrates released: 79 µM

## O=NN(c1ccc(C(=O)O)cc1)c1ccc(C(=O)O)cc1 [Example 30, 4,4′-(Nitrosoimino)dibenzoic acid]
[1]
  Nitrites—Nitrates released: 58 µM

## COc1ccc(N(N=O)c2ccc(C(N)=O)cc2)cc1 [Example 42]
[1]
  Nitrites—Nitrates released: 79 µM
